Data on twelve compounds can be found in publication PMC6008489 (Bioorganic & Medicinal Chemistry, 2018).

Structures can show the parent of a compound that is named as a salt.

Data set [1] addresses T1, MPS1 (Homo sapiens, UniProt P33981).
T1 sequence (P33981 1-857): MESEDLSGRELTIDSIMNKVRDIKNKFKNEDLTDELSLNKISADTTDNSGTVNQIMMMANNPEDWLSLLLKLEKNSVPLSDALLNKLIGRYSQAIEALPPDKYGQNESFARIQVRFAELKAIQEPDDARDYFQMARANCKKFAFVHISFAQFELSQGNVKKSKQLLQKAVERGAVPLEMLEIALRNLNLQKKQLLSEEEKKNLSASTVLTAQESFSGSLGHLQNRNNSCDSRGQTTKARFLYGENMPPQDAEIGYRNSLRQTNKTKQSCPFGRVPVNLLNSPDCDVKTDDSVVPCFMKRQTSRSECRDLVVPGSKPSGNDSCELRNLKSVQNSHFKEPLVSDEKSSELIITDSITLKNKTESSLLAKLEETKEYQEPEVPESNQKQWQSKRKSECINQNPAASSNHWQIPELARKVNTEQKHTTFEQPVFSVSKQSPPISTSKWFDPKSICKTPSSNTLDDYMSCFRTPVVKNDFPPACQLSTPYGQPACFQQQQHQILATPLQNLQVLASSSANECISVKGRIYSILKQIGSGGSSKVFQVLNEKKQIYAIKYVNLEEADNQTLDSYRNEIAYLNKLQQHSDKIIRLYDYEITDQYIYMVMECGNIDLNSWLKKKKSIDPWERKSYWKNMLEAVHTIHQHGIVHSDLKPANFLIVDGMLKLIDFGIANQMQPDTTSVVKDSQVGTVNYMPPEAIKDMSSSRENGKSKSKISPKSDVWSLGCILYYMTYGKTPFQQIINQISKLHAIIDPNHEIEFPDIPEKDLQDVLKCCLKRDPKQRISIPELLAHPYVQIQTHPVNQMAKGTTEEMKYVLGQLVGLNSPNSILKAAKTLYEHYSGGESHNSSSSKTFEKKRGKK
It counts as biochemical. The note with it: for Ki: calculated from mean IC50 using the Cheng-Prusoff equation; for MPS1 ligand efficiency (LE): from Ki.
Protocol: (§1) IC50 values were obtained for an expanded version of the fragment library using the previously described mobility shift assay.[44] Subsequently, Ki values were estimated from IC50 values to allow better comparison of the activity against targets which were measured at different substrate concentrations (Supplementary data Table 1).
(§2) IC50 values for MPS1, Aurora A and Aurora B inhibition were determined as previously described,[44] and Ki values were estimated from the mean IC50 values using the Cheng-Prusoff equation.[48]
(§3) Kinase [ATP] (M) [Enzyme] (nM) [Peptide Substrate] (M) MgCl2 (mM)
(§4) For all compounds, IC50 values for MPS1, Aurora A, and Aurora B were determined
(§5) using MPS1 and Aurora A/B mobility shift assays as described previously.1 IC50
(§6) values were calculated from a four-parameter logistic fit of percentage inhibition
(§7) versus concentration (at 8 compound concentrations) using GraphPad Prism 5
(§8) (GraphPad Software, Inc., CA, USA). Mean IC50 values were determined from two
(§9) independent measurements each carried out in duplicate. Ki values were estimated
(§10) from the mean IC50 values using the Cheng-Prusoff equation.

Data set [2] deals with Aurora B (Homo sapiens, UniProt Q96GD4). The data set is classed as biochemical. The settings on record: for Ki: calculated from mean IC50 using the Cheng-Prusoff equation, read-out: AurB Ki; for AurB ligand efficiency (LE): from Ki.
Protocol: as §1, §2, §3, §4, §5, §6, §7, §8, §9, §10
Data set [3] deals with T2, Aurora A (Homo sapiens, UniProt O14965).
T2 sequence (O14965 1-403): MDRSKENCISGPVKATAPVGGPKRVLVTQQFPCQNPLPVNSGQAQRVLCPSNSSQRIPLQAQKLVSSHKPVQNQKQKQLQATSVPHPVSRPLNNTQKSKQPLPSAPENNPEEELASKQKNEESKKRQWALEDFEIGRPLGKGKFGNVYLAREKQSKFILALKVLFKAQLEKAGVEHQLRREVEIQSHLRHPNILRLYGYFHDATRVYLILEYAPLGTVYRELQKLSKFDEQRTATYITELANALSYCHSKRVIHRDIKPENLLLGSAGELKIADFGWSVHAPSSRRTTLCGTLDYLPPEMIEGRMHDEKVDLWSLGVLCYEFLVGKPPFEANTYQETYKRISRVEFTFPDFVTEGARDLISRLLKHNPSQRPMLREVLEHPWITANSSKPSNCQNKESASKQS
The data set is classed as biochemical. The settings on record: for Ki: calculated from mean IC50 using the Cheng-Prusoff equation, read-out: AurA Ki; for AurA ligand efficiency (LE): from Ki.
Protocol: as §1, §2, §3, §4, §5, §6, §7, §8, §9, §10

The target of data set [4] is T3, INSR (Homo sapiens, UniProt P06213).
T3 construct: purchased Perkin Elmer (ProfilerPro assay kit 1)
The experiment in a line: 26-kinase panel mobility shift assay, single concentration. The settings on record: read-out: % Inhibition INSR. It counts as biochemical.
Protocol: (§11) In order to test the biochemical activity of our fragment library, a panel of 26 structurally diverse protein kinases was used.
(§12) Screening of 26 kinases using a mobility shift assay
(§13) A mobility shift assay to determine kinase inhibition was carried out using a
(§14) modified version of the ProfilerPro assay kit 1 (Perkin Elmer, Coventry, UK)
(§15) including MPS1 and Aurora B. Each kit contained an enzyme plate, a substrate
(§16) plate, reconstitution buffer, 1 M DTT, protease inhibitor cocktail and termination
(§17) buffer. Test compounds were added as a solution in DMSO.
(§18) peptide phosphorylation assay was carried out as per the manufacturer’s
(§19) instructions. The electrophoretic separation and analysis of the phosphorylated
(§20) and non-phosphorylated peptides was carried out on a 4-sipper chip using a
(§21) LabChip EZReader II (Perkin Elmer). Results were expressed as % inhibition of
(§22) peptide phosphorylation relative to control wells for 0 % (no test compound) and
(§23) 100 % (no ATP) inhibition. The percentage inhibition was calculated using the
(§24) % Inhibition = [1 - (% Conversion Sample / % Conversion 0% Inhibition Control)] x 100

Data set [5] has as its target T4, SRC (Homo sapiens, UniProt P12931).
T4 construct: purchased Perkin Elmer (ProfilerPro assay kit 1)
The data set is described as above. It counts as biochemical. The settings on record: read-out: % Inhibition SRC.
Protocol: as §11, §12, §13, §14, §15, §16, §17, §18, §19, §20, §21, §22, §23, §24

Data set [6] deals with T1, MPS1. The experiment in a line: biochemical. The settings on record: read-out: % Inhibition MPS1.
Protocol: as §11, §12, §13, §14, §15, §16, §17, §18, §19, §20, §21, §22, §23, §24
The target in data set [7] is T5, AKT2 (Homo sapiens, UniProt P31751).
T5 construct: purchased Perkin Elmer ProfilerPro assay kit 1
The data set can be described thus: 26-kinase panel mobility shift assay, single concentration. The data set is classed as biochemical. The note with it: read-out: % Inhibition AKT2.
Protocol: as §11, §12, §13, §14, §15, §16, §17, §18, §19, §20, §21, §22, §23, §24
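For AurB Ki in this document: aurora B inhibition measured in a mobility shift assay, underlying mean IC50 taken from two independent duplicate runs at 8 compound concentrations.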
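For AurB ligand efficiency (LE) in this document: aurora B inhibition measured in a mobility shift assay, underlying mean IC50 taken from two independent duplicate runs at 8 compound concentrations.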

Aurora B, sequence (Q96GD4 whole entry): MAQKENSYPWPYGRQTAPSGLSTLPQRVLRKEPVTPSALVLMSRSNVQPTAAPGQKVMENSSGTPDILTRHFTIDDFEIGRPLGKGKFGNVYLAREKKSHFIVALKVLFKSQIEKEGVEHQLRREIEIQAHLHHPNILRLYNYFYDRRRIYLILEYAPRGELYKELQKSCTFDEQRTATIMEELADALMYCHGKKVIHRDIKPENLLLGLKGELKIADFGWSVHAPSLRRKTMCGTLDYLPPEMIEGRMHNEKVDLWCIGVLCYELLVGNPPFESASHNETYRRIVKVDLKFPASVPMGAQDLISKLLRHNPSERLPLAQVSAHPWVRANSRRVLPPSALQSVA
T5 sequence (P31751 whole entry): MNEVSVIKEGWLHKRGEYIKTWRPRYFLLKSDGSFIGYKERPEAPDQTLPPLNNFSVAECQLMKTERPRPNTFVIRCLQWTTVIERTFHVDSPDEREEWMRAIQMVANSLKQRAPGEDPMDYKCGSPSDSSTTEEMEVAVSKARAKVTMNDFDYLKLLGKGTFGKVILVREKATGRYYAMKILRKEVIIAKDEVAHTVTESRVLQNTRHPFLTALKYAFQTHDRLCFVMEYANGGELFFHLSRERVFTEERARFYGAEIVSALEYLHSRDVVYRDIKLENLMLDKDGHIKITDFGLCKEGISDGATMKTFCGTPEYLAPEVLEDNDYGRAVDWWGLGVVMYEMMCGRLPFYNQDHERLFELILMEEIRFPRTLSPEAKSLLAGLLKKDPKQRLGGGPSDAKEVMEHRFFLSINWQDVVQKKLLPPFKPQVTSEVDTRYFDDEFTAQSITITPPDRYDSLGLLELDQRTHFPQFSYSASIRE
T4 sequence (P12931 whole entry): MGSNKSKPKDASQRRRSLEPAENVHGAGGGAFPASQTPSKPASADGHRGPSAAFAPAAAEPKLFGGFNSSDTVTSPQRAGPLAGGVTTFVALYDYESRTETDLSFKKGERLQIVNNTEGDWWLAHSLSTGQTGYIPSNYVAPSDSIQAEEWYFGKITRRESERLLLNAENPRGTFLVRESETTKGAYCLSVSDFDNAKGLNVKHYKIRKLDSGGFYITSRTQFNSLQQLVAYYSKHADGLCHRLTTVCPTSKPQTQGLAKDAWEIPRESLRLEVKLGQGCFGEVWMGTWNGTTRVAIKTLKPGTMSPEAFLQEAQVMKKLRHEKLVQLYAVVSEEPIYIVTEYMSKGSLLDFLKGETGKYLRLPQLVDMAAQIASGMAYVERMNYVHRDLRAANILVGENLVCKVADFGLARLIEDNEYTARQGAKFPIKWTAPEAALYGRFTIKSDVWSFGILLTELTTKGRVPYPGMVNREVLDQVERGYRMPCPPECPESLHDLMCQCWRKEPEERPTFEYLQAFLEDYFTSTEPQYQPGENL
T3 sequence (P06213 28-1382): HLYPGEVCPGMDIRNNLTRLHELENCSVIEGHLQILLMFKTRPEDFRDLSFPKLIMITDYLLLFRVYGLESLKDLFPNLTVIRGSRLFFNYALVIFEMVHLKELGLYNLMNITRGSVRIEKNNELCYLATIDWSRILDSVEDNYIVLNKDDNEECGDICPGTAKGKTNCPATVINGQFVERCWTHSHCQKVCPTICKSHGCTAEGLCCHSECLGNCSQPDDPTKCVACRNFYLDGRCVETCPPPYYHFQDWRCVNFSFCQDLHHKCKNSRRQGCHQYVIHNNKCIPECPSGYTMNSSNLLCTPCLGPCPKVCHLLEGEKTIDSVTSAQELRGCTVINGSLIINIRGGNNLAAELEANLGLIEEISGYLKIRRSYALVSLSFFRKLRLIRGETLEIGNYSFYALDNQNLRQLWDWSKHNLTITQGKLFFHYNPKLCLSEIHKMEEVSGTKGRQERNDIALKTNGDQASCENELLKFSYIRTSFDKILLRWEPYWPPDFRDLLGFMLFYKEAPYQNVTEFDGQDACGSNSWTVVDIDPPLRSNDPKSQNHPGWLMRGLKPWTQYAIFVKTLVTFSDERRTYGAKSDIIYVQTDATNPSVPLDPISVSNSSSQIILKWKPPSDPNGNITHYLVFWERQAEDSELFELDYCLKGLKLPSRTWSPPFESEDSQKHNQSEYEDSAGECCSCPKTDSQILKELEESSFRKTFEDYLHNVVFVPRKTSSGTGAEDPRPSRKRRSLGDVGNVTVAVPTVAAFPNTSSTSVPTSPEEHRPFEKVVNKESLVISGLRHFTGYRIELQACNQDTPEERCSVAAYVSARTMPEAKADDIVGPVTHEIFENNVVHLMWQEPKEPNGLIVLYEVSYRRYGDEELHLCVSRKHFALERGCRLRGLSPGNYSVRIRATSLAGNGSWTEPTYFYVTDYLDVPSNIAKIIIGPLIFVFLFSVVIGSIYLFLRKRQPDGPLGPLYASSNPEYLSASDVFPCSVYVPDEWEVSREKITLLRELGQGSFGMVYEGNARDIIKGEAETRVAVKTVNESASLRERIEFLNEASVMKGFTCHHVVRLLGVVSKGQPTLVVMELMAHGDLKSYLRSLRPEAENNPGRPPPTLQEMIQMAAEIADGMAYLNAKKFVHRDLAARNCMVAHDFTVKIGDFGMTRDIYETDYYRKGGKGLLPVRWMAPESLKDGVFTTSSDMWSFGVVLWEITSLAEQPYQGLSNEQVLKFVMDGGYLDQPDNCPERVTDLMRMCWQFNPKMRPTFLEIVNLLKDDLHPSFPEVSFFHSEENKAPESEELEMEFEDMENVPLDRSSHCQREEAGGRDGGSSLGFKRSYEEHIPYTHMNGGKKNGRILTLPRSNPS

Compound `O=C(Nc1cc(-c2ccncc2)c[nH]c1=O)c1cc(F)cc(F)c1` [Compound 20] displayed a melting point of 293 °C.

Regarding `Nc1cc(-c2cncnc2)c[nH]c1=O` (as salt: sodium) [Compound 10, 3-Amino-5-(pyrimidin-5-yl)pyridin-2(1H)-one], the melting point turned out to be 240 °C.

Consider `Cc1[nH]c(=O)c(C#N)cc1-c1ccncc1` [Compound 13, Milrinone, reference compound], for which the Ki in data set [1], in data set [2] and in data set [3] was above 100 µM throughout.

On to `COc1cc(OC)cc(C(=O)Nc2cc(-c3ccncc3)c[nH]c2=O)c1` [Compound 18, 3,5-Dimethoxy-N-(2-oxo-5-(pyridin-4-yl)-1,2-dihydropyridin-3-yl)benzamide], for which the figures for the Ki in data set [1], in data set [2] and in data set [3] were 30.1 µM, 32.9 µM and above 100 µM, respectively.

As to `Nc1cc(-c2cncnc2)c[nH]c1=O` [Compound 10, 3-Amino-5-(pyrimidin-5-yl)pyridin-2(1H)-one], in data set [1], the Ki was 269 µM and the “MPS1 ligand efficiency (LE)” value came to 0.35. Also, in data set [2], the Ki is 18.7 µM and the “AurB ligand efficiency (LE)” value was 0.46. Moreover, in data set [3], the Ki was 89.6 µM and the “AurA ligand efficiency (LE)” value came out at 0.39.

The compound `O=C(Nc1cc(-c2ccncc2)c[nH]c1=O)c1cccc(F)c1` [Compound 19, 3-Fluoro-N-(2-oxo-5-(pyridin-4-yl)-1,2-dihydropyridin-3-yl)benzamide] showed a melting point of 292 °C. Besides, the Ki in data set [1] is above 100 µM. Also, in data set [2], the Ki was above 100 µM. In addition, the Ki in data set [3] is above 100 µM.

Consider `Nc1cc(-c2ccccc2)cnc1O` [Compound 9, 3-Amino-5-phenyl-pyridin-2-one], for which, in data set [1], the Ki is 128 µM and the “MPS1 ligand efficiency (LE)” value was determined as 0.38. In data set [2], the Ki was 70.3 µM and the “AurB ligand efficiency (LE)” value came out at 0.40. For the same compound, in data set [3], the Ki was 66.9 µM and the “AurA ligand efficiency (LE)” value stood at 0.41.

Compound `O=c1[nH]cc(-c2ccncc2)cc1NS(=O)(=O)c1ccccc1` [Compound 21] registered a melting point of 289 °C. In data set [1], the Ki is above 100 µM. Also, the Ki in data set [2] is above 100 µM. Moreover, in data set [3], the Ki was above 100 µM.

On to `Cc1[nH]c(=O)c(C(N)=O)cc1-c1ccncc1` [Compound 14], for which the Ki in data set [1], in data set [2] and in data set [3] was above 100 µM each time.

`COc1cccc(C(=O)Nc2cc(-c3ccncc3)c[nH]c2=O)c1` [Compound 17, 3-Methoxy-N-(2-oxo-5-(pyridin-4-yl)-1,2-dihydropyridin-3-yl)benzamide] yielded a melting point of 287 °C. Moreover, the Ki in data set [1] is 24.8 µM. Further, the inhibition at 100 µM in data set [4] was 21%. For the same compound, the inhibition at 100 µM in data set [5] turned out to be 59%. In addition, the inhibition at 100 µM in data set [6] is 42%. The inhibition at 100 µM in data set [7] amounted to 50%.

As for `O=C(Nc1cc(-c2ccncc2)c[nH]c1=O)c1ccc(N2CCCCC2)cc1` [Compound 23], the melting point worked out at 284 °C. Also, in data set [1], the Ki was 2.9 µM and the “MPS1 ligand efficiency (LE)” value was found to be 0.27. In data set [2], the Ki is 7.4 µM and the “AurB ligand efficiency (LE)” value was found to be 0.25. In data set [3], the Ki is 2.6 µM and the “AurA ligand efficiency (LE)” value was determined as 0.27.

With `Nc1cc(-c2cccnc2)c[nH]c1=O` [Compound 11], in data set [1], the Ki was 98.1 µM and the “MPS1 ligand efficiency (LE)” value is on record as 0.39. Besides, in data set [2], the inhibition constant (Ki) was 97.2 µM and the “AurB ligand efficiency (LE)” value is on record as 0.39. Further, in data set [3], the Ki was 125 µM and the “AurA ligand efficiency (LE)” value was determined as 0.38.

In general, melting point refers to the temperature, or range, at which the solid turns liquid. The term Ki denotes a measure of affinity in units of concentration, obtained from inhibition or displacement. As a reminder, the inhibition is the drop in the measured response relative to a control, in per cent.
